{"source": "patent US20200308162A1", "about": "“DRUGS AND COMPOSITIONS FOR OCULAR DELIVERY” (Graybug Vision, Inc., priority 2017, published 2020)", "key": {"[1]": {"assay": "Stability of Timolol prodrugs in PBS via HPLC", "type": "physicochemical", "conditions": "PBS (100% PBS)", "experimental": "The stability of Compound 51 was measured in 100% serum (FIG. 27A), 50% serum and 50% PBS (FIG. 27B), and 100% PBS (FIG. 27C) via HPLC. Each point on the graph is the retention time of Compound 51, parent Timolol, and 4 breakdown products at day 0, 1, 2, 3, 4, or 5 as measured. […] The concentration of the breakdown product with a retention time of 5.454 minutes was higher than the concentration of parent Timolol (retention time=4.4 minutes).\nThe stability of Compound 52 was measured in PBS (FIG. 28) and the stability of Compound 53 was measured in PBS (FIG. 29)."}, "[2]": {"assay": "In vitro drug release kinetics of Timolol prodrug microparticles in PBS and 1% Tween 20 (pH 7.4) at 37° C.", "type": "physicochemical", "experimental": "In vitro drug release kinetics were evaluated in a release medium composed of PBS and 1% Tween 20 (pH 7.4). Briefly, 10 mg of particles was suspended in 4 mL of the release medium The particle suspension was incubated on an orbital shaker at 150 rpm at 37° C. At various time points, 3 mL of release media was collected, and the suspension was replenished with 3 mL of fresh release media. Collected release samples were frozen and stored at −80° C. until analysis for drug content. The collected samples were filtered through a 0.2 μm syringe filter and analyzed by RP-HPLC. FIG. 17-FIG. 22 illustrate the total and parent Timolol release profile for the microparticles encapsulating bis-prodrugs of Timolol of Table 11."}, "[3]": {"assay": "Percent drug loading of ethacrynic acid prodrug microparticles (RP-HPLC)", "type": "physicochemical", "experimental": "To determine the percent drug loading (% DL), 10 mg of particles was weighed into a glass scintillation vial and dissolved with 10 mL of MeCN:water (1:1, v/v). The solution was filtered through a 0.2 μm nylon syringe filter and the drug content was determined by RP-HPLC referenced against a standard calibration curve."}, "[4]": {"assay": "In vitro stability of ethacrynic acid prodrugs at 37° C.", "type": "physicochemical", "conditions": "37° C.", "from_the_text": "As evidenced, both prodrugs of ethacrynic acid degrade steadily over the 6 day period. As the ester linkages are hydrolyzed, the parent compound is generated in a linear rate. The rate of degradation to the parent compound is faster for the shorter […] in comparison to the degradation kinetics for ethacrynic acid-PLA(n=4)-ethyl ester (1).\nApproximately 94% of the ECA-PLA(n=4) prodrug (1) has been converted to free ECA by day 6, in comparison to only 56% for ECA-PLA(n=6) (25). Also, by day 6, all the initial prodrug has been degraded into intermediates and free drug respectively."}, "[5]": {"assay": "Mean size of ethacrynic acid prodrug encapsulated microparticles", "type": "physicochemical"}, "[6]": {"assay": "Degradation of ECA prodrugs heated at 60° C. in water/acetonitrile (HPLC-MS)", "type": "physicochemical", "conditions": "60° C. in 50/50 water (0.1% FA)/acetonitrile (0.1% FA)", "experimental": "Prodrugs of ECA were challenged by heating at 60° C. in 50/50 water (0.1% FA)/acetonitrile (0.1% FA), and the degradants were separated using a reverse phase HPLC equipped with a C-18 bonded stationary phase. The identification of various peaks was accomplished by mass spectrometry detector and retention time comparison with available standards.\nChromatographic separation of ethacrynic acid parent compounds and their PLA conjugated derivatives was achieved using an Agilent 1260 Infinity II LCMS equipped with an Waters Symmetry C18 column (5 μm, 4.6 mm×150 mm) as the stationary phase and acetonitrile/water as the mobile phase. The gradient separation method is outlined in Table 4. The analysis was performed at an injection volume of 10 μL, a flow rate of 1.2 mL/min and a detection wavelength of 230 nm at 25° C. Retention times for ethacrynic acid and PLA-conjugated compounds are illustrated in Table 5.\nTable 6 illustrates the calculated mass and structure of all the individual intermediates and the parent compound. Calculated mass ions were extracted using a MS G6135B detector with positive and negative polarity acquisition between mass 100-1000, fragmentation at 250, gain at 1, threshold of 150, and speed of 2080 u/sec. Extracted ions and polarity for individual mass spectometry peak identification is outlined in Table 7."}, "[7]": {"assay": "Drug release kinetics of Timolol and ethacrynic acid prodrugs from polymer microparticles", "type": "physicochemical", "experimental": "The effect of polymer composition including monomer ratio and molecular weight, polymer end-groups (ester or acid), inherent viscosity and polymer blend ratios on particle degradation and drug release kinetics of Timolol-O-ethyl fumurate (17) was evaluated and is illustrated in FIG. 5. The rate of particle degradation was slowed and drug release was prolonged when the mole % of DL-lactide over glycolide was increased. By incorporating polymers with different monomer ratios (i.e., PLA, PLGA8515, PLGA525, PLGA5050 wherein 8515 refers to 85% DL-lactide and 15% glycolide) into the particles, it is possible to fine-tune the degradation rate of the particles to achieve a linear rate of drug release from the particles to minimize burst or lag and to extend the duration of release. […] The 78/22(PLA 5A/PLGA8515 4.5A) and 65/20/15(PLA 4A/PLGA6515 4.5A/PLGA5050 4A) polymer blends generated ideal particles for a 3-6 month linear release formulation. […] The rate of release was independent of the salt form. […] Thus, release rate is not solely dictated by the physicochemical properties of the linker, but rather must be attributed to a combination of parameters that may include linker type and site of linker conjugation.\nFIG. 6 illustrates the release kinetics of ethacrynic acid-PLA(n=4)-ethyl ester (1) from PLGA microparticles. The drug was released over a period of approximately 66 days.\nFIG. 8 and FIG. 9 illustrate the release kinetics of ethacrynic acid-PLA(n=4)-ethyl ester (1) and ethacrynic acid-PLA(n=6)-ethyl ester (25), respectively, from PLGA microparticles. The drug was released from a number of formulations over a period of greater than 90 days. […] Particles generated with 1% PVA in PBS was compared against particles generated in 1% PVA in water (FIG. 10).\nBased upon these initial formulation screens, the formulation comprising of 1% mPEG-PLGA and 99% PLA100 4.5A:PLGA8515 5A (77:22) was selected as the lead formulation for ECA-PLA(n=4) (1) and ECA-PLA(n=6) (25) prodrugs. The particles were prepared in 1% PVA in water. The release profiles for the lead ECA-PLA(n=4) (1) and ECA-PLA(=6) (25) particle formulations are illustrated in FIG. 11."}, "[8]": {"assay": "Drug solubility in water, DMSO and DCM (HPLC of filtered supernatant)", "conditions": "thermodynamic from solid", "procedure": "For each test, approximately 5-10 mg was transferred to a 10 mL glass vial. Aqueous or organic solvent was added to each vial to achieve an overall concentration of 50 mg/mL. After vortexing aggressively for 2-3 minutes and sonicating in a bath sonicator for 5 minutes, undissolved drug was spun down at 1200 rpm for 5 minutes to generate a pellet. The supernatant was collected and filtered through a 0.2 μm nylon syringe filter into HPLC vials for drug content analysis. Drug concentration was determined by comparing against a standard calibration curve."}, "monkey eyes": {"system": "monkey eyes", "conditions": "topical eye drops, cited from earlier work"}, "[9]": {"conditions": "carboxylic acid; cited from earlier work"}, "glaucomatous monkey eyes": {"system": "glaucomatous monkey eyes", "conditions": "ointment, highest concentration of 2.5% ECA, four glaucomatous monkey eyes; cited from earlier work"}, "rabbit eyes": {"system": "rabbit eyes", "conditions": "topical eye drops, cited from earlier work"}, "[10]": {"conditions": "clinical trials and post-marketing clinical use; cited from earlier work"}, "[11]": {"conditions": "PLA100 4.5A + 1% PEG-PLGA5050, polymer 200 mg/mL"}, "[12]": {"conditions": "PLA100 4.5A + PLGA7525 6E (69:30) + 1% PEG-PLGA5050, polymer 200 mg/mL"}, "[13]": {"conditions": "PLA100 4.5A + PLGA8515 5A (77:22) + 1% PEG-PLGA5050, polymer 200 mg/mL"}, "[14]": {"conditions": "PLA100 4.5A + PLGA8515 5A + PLGA5050 4A (64:20:15) + 1% PEG-PLGA5050, polymer 200 mg/mL"}, "[15]": {"conditions": "PLA100 4.5A + PLGA8515 5A + PLGA5050 4A (64:30:5) + 1% PEG-PLGA5050, polymer 200 mg/mL"}, "[16]": {"conditions": "PLGA7525 4A + 1% PEG-PLGA5050, polymer 200 mg/mL"}}, "note": "Entries after “also recorded” stand apart in the source; their conditions may differ.", "data": [{"smiles": "CC(=O)OCC(=O)N(C[C@@H](COc1nsnc1N1CCOCC1)OC(=O)COC(=O)C(C)OC(=O)C(C)O)C(C)(C)C", "note": "(stereo partly drawn) [Compound 53, Timolol-N-Glycolic acid-OAc-O-Glycolic acid-PLA (n = 2)-OH]", "values": [{"measurement": "stability / breakdown into parent Timolol and breakdown products", "setting": "[1]", "value": "breaks down over the course of 8 days; also recorded: a significant amount of an additional breakdown product"}, {"measurement": "linear (4-month) drug release", "setting": "[2]; in vitro", "value": "did not exhibit linear drug release; also recorded: did not consistently meet the 4-month criteria"}]}, {"smiles": "C=C(CC)C(=O)c1ccc(OCC(=O)O[C@@H](C)C(=O)O[C@@H](C)C(=O)O[C@@H](C)C(=O)O[C@@H](C)C(=O)O[C@@H](C)C(=O)O[C@@H](C)C(=O)OCC)c(Cl)c1Cl", "note": "[Compound 25, (S)-2-((S)-2-[(S)-2-((S)-2-(2-[2,3-Dichloro-4-(2-methylene-butyryl)-phenoxy]-acetoxy)-propionyloxy)-propionyloxy]-propionyloxy)-propionic acid (S)-1-((S)-1-ethoxycarbonyl-ethoxycarbonyl)-ethyl ester]", "values": [{"measurement": "% Drug loading", "setting": "[3]; [11]", "value": 13.83, "unit": "%"}, {"measurement": "% Drug loading", "setting": "[3]; [12]", "value": 11.56, "unit": "%"}, {"measurement": "% Drug loading", "setting": "[3]; [13]", "value": 12.29, "unit": "%"}, {"measurement": "% Drug loading", "setting": "[3]; [14]", "value": 14.22, "unit": "%"}, {"measurement": "% Drug loading", "setting": "[3]; [15]", "value": 13.53, "unit": "%"}, {"measurement": "% Drug loading", "setting": "[3]; [16]", "value": 12.43, "unit": "%"}, {"measurement": "% Drug loading", "setting": "[3]; theoretical loading 15", "value": 13.5, "unit": "%"}, {"measurement": "% Encapsulation Efficiency", "setting": "[3]; theoretical loading 15", "value": 90.0, "unit": "%"}, {"measurement": "% Drug loading", "setting": "[3]; theoretical loading 20", "value": 18.1, "unit": "%"}, {"measurement": "% Encapsulation Efficiency", "setting": "[3]; theoretical loading 20", "value": 90.5, "unit": "%"}, {"measurement": "% Drug loading", "setting": "[3]; theoretical loading 30", "value": 27.4, "unit": "%"}, {"measurement": "% Encapsulation Efficiency", "setting": "[3]; theoretical loading 30", "value": 91.3, "unit": "%"}, {"measurement": "% Drug loading", "setting": "[3]; theoretical loading 40", "value": 38.2, "unit": "%"}, {"measurement": "% Encapsulation Efficiency", "setting": "[3]; theoretical loading 40", "value": 95.5, "unit": "%"}, {"measurement": "rate of degradation of the prodrug", "setting": "[4]; 6 days", "value": "degraded slightly slower"}, {"measurement": "prodrug converted to free ECA by day 6", "setting": "[4]; day 6", "value": 56, "unit": "%"}, {"measurement": "Mean size", "setting": "[5]; [11]", "value": 27.62, "unit": "um"}, {"measurement": "Mean size", "setting": "[5]; [12]", "value": 26.95, "unit": "um"}, {"measurement": "Mean size", "setting": "[5]; [13]", "value": 27.88, "unit": "um"}, {"measurement": "Mean size", "setting": "[5]; [14]", "value": 26.59, "unit": "um"}, {"measurement": "Mean size", "setting": "[5]; [15]", "value": 26.27, "unit": "um"}, {"measurement": "Mean size", "setting": "[5]; [16]", "value": 26.19, "unit": "um"}, {"measurement": "hydrolysis products", "setting": "[6]", "value": "hydrolyze into five intermediates"}, {"measurement": "in vitro release profile of lead microparticle formulation", "setting": "[7]; 1% mPEG-PLGA and 99% PLA100 4.5A:PLGA8515 5A (77:22), prepared in 1% PVA in water, FIG. 11", "value": "much more linear release profile"}, {"measurement": "rate of drug release as a function of drug loading", "setting": "[7]; microparticles with 13.5, 18.1, 27.4 and 38.2 % DL, FIG. 4", "value": "rate of drug release increased with increasing drug loading"}, {"measurement": "solubility", "setting": "[8]; DMSO, organic solvent or mixture", "value": "> 50", "unit": "mg/mL"}, {"measurement": "solubility", "setting": "[8]; water", "value": "< 0.1", "unit": "mg/mL"}]}, {"smiles": "C=C(CC)C(=O)c1ccc(OCC(=O)O)c(Cl)c1Cl", "note": "[ECA, ethacrynic acid]", "values": [{"measurement": "ocular adverse effects", "setting": "monkey eyes; especially at higher doses", "value": "corneal edema and moderate diffuse superficial corneal erosion"}, {"measurement": "effect on IOP", "setting": "monkey eyes; monkey eyes", "value": "effective in decreasing IOP"}, {"measurement": "pka", "setting": "[9]", "value": "approximately 2.8"}, {"measurement": "ocular adverse effects", "setting": "glaucomatous monkey eyes", "value": "mild eyelid edema, conjunctival hyperemia, and discharge"}, {"measurement": "ocular adverse effects", "setting": "rabbit eyes; especially at higher doses", "value": "corneal edema and moderate diffuse superficial corneal erosion"}, {"measurement": "effect on IOP", "setting": "rabbit eyes; rabbit eyes", "value": "effective in decreasing IOP"}]}, {"smiles": "CC(=O)OCC(=O)O[C@H](COc1nsnc1N1CCOCC1)CN(C(=O)COC(C)=O)C(C)(C)C", "note": "[Compound 52, Timolol-N,O-bis-Glycolic acid-OAc]", "values": [{"measurement": "stability / breakdown into parent Timolol and breakdown products", "setting": "[1]", "value": "breaks down over the course of 15 days; also recorded: breaks down into parent Timolol"}, {"measurement": "parent Timolol released relative to total release of prodrug and intermediates", "setting": "[2]; PBS and 1% Tween 20 (pH 7.4), 37° C.", "value": "primarily as native parent Timolol"}, {"measurement": "maximum release duration", "setting": "[2]; in vitro, FIG. 21", "value": "approximately 70 days"}]}, {"smiles": "CCN(CC)CCNC(=O)c1c(C)[nH]c(/C=C2\\C(=O)Nc3ccc(F)cc32)c1C", "note": "[Sunitinib]", "values": [{"measurement": "hepatotoxicity", "setting": "[10]", "value": "observed hepatotoxicity"}]}]}
